Assay results as given in PubChem BioAssay (NCI).
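Values below derive from 48-hour exposures of cells grown in 96-well plates, with endpoints linearly interpolated between the two concentrations bracketing the appropriate inhibition level. GI50 marks 50% less growth. TGI: total growth inhibition.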

Experiments:
Experiment in all cases: NCI-60 cell line screen, 48 h
786-0 renal = test system: 786-0 renal
ACHN renal = test system: ACHN renal
CAKI-1 renal = test system: CAKI-1 renal
HCC-2998 colon = test system: HCC-2998 colon
HCT-116 colon = test system: HCT-116 colon
LOX IMVI melanoma = test system: LOX IMVI melanoma
MDA-MB-231 breast = test system: MDA-MB-231 breast
U251 CNS = test system: U251 CNS
UACC-257 melanoma = test system: UACC-257 melanoma
SR leukemia = test system: SR leukemia

| SMILES | GI50 (786-0 renal) [nM] | TGI (786-0 renal) [µM] | GI50 (ACHN renal) [nM] | TGI (ACHN renal) [µM] | GI50 (CAKI-1 renal) [nM] | TGI (CAKI-1 renal) [µM] | GI50 (HCC-2998 colon) [nM] | TGI (HCC-2998 colon) [µM] | GI50 (HCT-116 colon) [nM] | TGI (HCT-116 colon) [µM] | GI50 (LOX IMVI melanoma) [nM] | TGI (LOX IMVI melanoma) [µM] | GI50 (MDA-MB-231 breast) [nM] | TGI (MDA-MB-231 breast) [µM] | GI50 (U251 CNS) [nM] | TGI (U251 CNS) [µM] | GI50 (UACC-257 melanoma) [nM] | TGI (UACC-257 melanoma) [µM] | TGI (SR leukemia) [µM] | GI50 (SR leukemia) [nM] |
| --- | --- | --- | --- | --- | --- | --- | --- | --- | --- | --- | --- | --- | --- | --- | --- | --- | --- | --- | --- | --- |
| O=C1c2[nH]cc(CNC3CN4CCC3CC4)c2C(=O)c2c1c(O)c1ccccc1c2O (stereo not drawn) | 2530 | 8.65 | 2600 | 8.04 | 612 | 2.05 | 187 | 0.721 | 370 | 2.65 | 1050 | 2.31 | 1410 | 3.09 | 1210 | 2.58 | 31700 | > 76.3 |  |  |
| CC[C@@H]1[C@@H](C)O[C@@](O)([C@@H](C)[C@H](O)[C@H](C)[C@H]2OC(=O)/C=C/C=C/[C@H](C)[C@@H]([C@@H](C)[C@@H](O)[C@H](C)[C@@]3(O)C[C@@H](O[C@H]4C[C@@H](O)[C@H](O)C(C)O4)[C@H](CC)[C@@H](C)O3)OC(=O)/C=C/C=C/[C@@H]2C)C[C@H]1O[C@@H]1C[C@@H](O)[C@H](O)C(C)O1 (stereo partly drawn) | 125 | 0.464 | 111 | 0.411 |  |  | 97 | 0.262 | 68.8 | 0.165 | 61.1 | 0.117 | 58.6 | 0.139 | 113 | 0.39 |  |  |  |  |
| COC1C(CO)OC(n2c3ccccc3c3c4c(c5c6ccccc6[nH]c5c32)C(=O)NC4=O)C(O)C1O (stereo not drawn) | 46.7 | 1.12 | < 19.1 | 0.0928 | < 18.4 | 0.0937 | 127 | 1.5 | 16 | 0.146 | < 10 | 0.0352 | 59.5 | 0.343 | < 10 | 0.141 | 103 |  |  |  |
| CC[C@H]1CN2CCc3cc(OC)c(OC)cc3C2C[C@@H]1CC1NCCc2cc(OC)c(OC)cc21 (stereo partly drawn) |  | 0.128 |  | 1.42 |  | 0.292 |  | 0.065 |  | 0.0491 |  | 0.0224 |  | 0.0994 |  |  |  | 0.258 |  |  |
| Cc1ccc(S(=O)(=O)c2ccc(NC(=O)SCCC(=O)O)cc2)cc1 |  | > 100 |  | > 100 |  | > 100 |  | > 100 |  | > 100 |  | > 100 |  |  |  | > 100 |  | > 100 | > 100 |  |
| CC(=O)Nc1ccccc1-c1nc2ccccc2nc1C |  | > 100 |  | > 100 |  | > 100 |  |  |  | > 100 |  | > 100 |  |  |  | > 100 |  | > 100 | > 100 |  |
| CC1=C(O)c2cn(C)cc2C(=O)C1=O |  | > 100 |  | > 100 |  | > 100 |  | > 100 |  | > 100 |  | > 100 |  |  |  | > 100 |  | > 100 | > 100 |  |
| COC(=O)C(=O)C(C(=O)C(=O)Nc1cccc(C(C)=O)c1)c1nc2ccc([N+](=O)[O-])cc2[nH]c1=O (stereo not drawn) |  | > 100 |  | > 100 |  | > 100 |  | > 100 |  | > 100 |  | > 100 |  |  |  | > 100 |  | > 100 | > 100 |  |
| COC(=O)C1=Cc2cc(OC)c(OC)c(OC)c2[C@H](c2cc(OC)c(OC)c(OC)c2)C1C(=O)OC (stereo partly drawn) |  | > 100 |  | > 100 |  | > 100 |  | > 100 |  | > 100 |  | > 100 |  |  |  | > 100 |  | > 100 |  |  |
| C[C@]12CCc3nc(Nc4cccc(O)c4)sc3C1=CC[C@@H]1[C@@H]2CC[C@]2(C)/C(=N\NC(N)=S)CC[C@@H]12 | 1440 | 4.31 | 2150 | 6 | 1640 | 3.26 | 1860 | 3.49 | 1340 | 2.69 | 1520 | 2.85 | 1750 | 4.95 | 1150 | 2.96 | 2120 | 6.4 |  |  |
| COC1OC(CO)C(O)C(OC(C)=O)C1NC(=O)N(CCCl)N=O (stereo not drawn) |  | > 100 |  | > 100 |  | > 100 |  | > 100 |  | > 100 |  | > 100 |  |  |  |  |  | > 100 |  |  |
| CCOC(=O)C1SC(=Nc2cccc(Cl)c2C)N=C1C (stereo not drawn) |  | 31.8 |  | 77.5 |  |  |  | > 10 |  | 58.1 |  | 32 |  |  |  | 30.3 |  | > 10 | 61.2 |  |
| C=C=C(C(=O)OC)S(=O)c1ccccc1[N+](=O)[O-] (stereo not drawn) |  | > 100 |  | > 100 |  | > 100 |  | > 100 |  | > 100 |  |  |  |  |  | > 100 |  | > 100 |  |  |
| COc1ccc(OC(C)=O)c2c1CCC=CC2=O |  | 32.5 |  | 32 |  |  |  | 32.9 |  | 34.3 |  | 17.5 |  |  |  | 32.2 |  | 31.8 | 40.3 |  |
| Nc1ccccc1NC(=O)c1ccc(CNc2nccc(-c3cccnc3)n2)cc1 | 2150 | > 47.9 | 1140 | > 27.8 | 323 |  | 785 | 2.59 | 362 | > 100 |  |  | 2440 | > 100 | 1120 |  | 730 |  |  | 268 |
| COc1cc(/C=C2\C[C@H]3[C@@H]4CC=C5C[C@@H](O)CC[C@]5(C)[C@H]4CC[C@]3(C)[C@H]2O)ccc1OCCN1CCCC1 | 6160 | 16 | 8380 | 16.9 | 10200 | 22.1 | 10100 | 20.6 | 8270 | 24.8 | 17900 | > 50 | 11700 | 23 | 12800 | 40.4 | 9890 | 19.8 |  |  |
| O=C1/C(=N\O)c2ccccc2S1(=O)=O |  | > 100 |  | > 100 |  | 83.7 |  | > 100 |  | > 100 |  | > 100 |  |  |  | > 100 |  | > 100 | > 100 |  |
| CCN(CC)CC(C)(C)C(=O)/C=C/c1cccc(/C=C/C(=O)C(C)(C)CN(CC)CC)c1 |  | 1.87 |  | 2.38 |  | 0.965 |  | 2.51 |  | 1.24 |  | 0.37 |  |  |  | 0.686 |  | 2.66 | 1.68 |  |
